Measurements published in DBAASP.
Converted amounts (≈) assume the structure as drawn. “And” between values parts separate entries of the source, which are not always exact repeats. Equal entries are not always repeated. One block for each molecule: values may come before it.

Legend:
Assay in all cases: ≥ marks a high value that may be exact or a test limit, other limits are often not marked, values filed in µg/mL are converted to µM
[1] = test system: Escherichia coli ATCC 25922
[2] = test system: Rhodococcus rhodochrous X15
[3] = test system: Staphylococcus aureus ATCC 25923
[4] = test system: Candida albicans ATCC 10231
[5] = test system: Bacillus licheniformis X39
[6] = test system: Staphylococcus carnosus KHS
[7] = test system: Serratia rubidaea X01
[8] = test system: Psychrobacter faecalis X29
[9] = test system: Enterococcus faecalis 981
[10] = test system: Pseudomonas aeruginosa 11053
[11] = test system: Staphylococcus aureus
[12] = test system: Escherichia coli
[13] = test system: Bifidobacterium longum subsp. infantis
[14] = test system: Staphylococcus epidermidis
[15] = test system: Staphylococcus aureus ATCC BAA-41
[16] = test system: Pseudomonas aeruginosa PAO1
[17] = test system: Staphylococcus aureus ATCC 6538P
[18] = test system: Escherichia coli BL21
[19] = test system: Staphylococcus aureus PTCC 1431
[20] = test system: Escherichia coli HP101BA 7601c
[21] = test system: Micrococcus luteus PTCC 1625
[22] = test system: Klebsiella pneumoniae PTCC 1388
[23] = test system: Escherichia coli ML-35p
[24] = test system: Candida albicans 820
[25] = test system: Listeria monocytogenes EGD
[26] = test system: Pseudomonas aeruginosa 198
[27] = test system: Enterococcus faecalis ATCC 29212
[28] = test system: Pseudomonas aeruginosa 9
[29] = test system: Staphylococcus aureus C623
[30] = test system: Escherichia coli ESBL 63103
[31] = test system: Klebsiella pneumoniae ESBL 63575
[32] = test system: Pseudomonas aeruginosa H1030
[33] = test system: Stenotrophomonas maltophilia ATCC 13637
[34] = test system: Enterococcus faecalis f43559
[35] = test system: Klebsiella pneumoniae ESBL 61962
[36] = test system: Enterococcus faecalis W61950
[37] = test system: Escherichia coli ESBL 64771
[38] = test system: Enterococcus faecium mic80
[39] = test system: Pseudomonas aeruginosa LES400
[40] = test system: Enterococcus faecium t62764
[41] = test system: Pseudomonas aeruginosa H1027
[42] = test system: Pseudomonas aeruginosa PAO1 H103
[43] = test system: Pseudomonas aeruginosa 213
[44] = test system: Enterobacter cloacae 218R

Compound: CC[C@H](C)[C@H](NC(=O)[C@@H]1CCCN1C(=O)[C@H](CCC(N)=O)NC(=O)[C@@H]1CCCN1C(=O)[C@@H](NC(=O)[C@H](CCC(N)=O)NC(=O)[C@H](CCC(N)=O)NC(=O)[C@H](CCSC)NC(=O)[C@H](CC(C)C)NC(=O)[C@@H]1CCCN1C(=O)[C@H](CCC(N)=O)NC(=O)[C@H](CC(C)C)NC(=O)[C@H](CC(C)C)NC(=O)[C@@H]1CCCN1C(=O)[C@H](CC(C)C)NC(=O)[C@@H]1CCCN1C(=O)[C@H](CC(C)C)NC(=O)[C@@H](N)Cc1cnc[nH]1)C(C)C)C(=O)O [HLPLPLLQPLMQQVPQPI]
- MIC [11]: > 1450 µM
- MIC [12]: > 1450 µM
- MIC [13]: ≥ 1450 µM

Compound: CC[C@H](C)[C@H](NC(=O)[C@H](CCC(N)=O)NC(=O)[C@@H](N)Cc1cnc[nH]1)C(=O)N[C@@H](Cc1ccc(O)cc1)C(=O)N1CCC[C@H]1C(=O)N[C@H](C(=O)N[C@H](C(=O)N[C@@H](CCC(N)=O)C(=O)N1CCC[C@H]1C(=O)N[C@@H](CC(C)C)C(=O)O)[C@@H](C)O)C(C)C [HQIYPVTQPL]
- MIC [11]: > 2510 µM
- MIC [12]: > 2510 µM
- MIC [13]: ≥ 2510 µM

Compound: CC[C@H](C)[C@H](NC(=O)[C@H](CCCCN)NC(=O)[C@H](CCCCN)NC(=O)[C@H](Cc1ccccc1)NC(=O)[C@H](CC(C)C)NC(=O)[C@H](CCCCN)NC(=O)[C@H](Cc1c[nH]c2ccccc12)NC(=O)[C@@H](N)CCCCN)C(=O)NCC(=O)N[C@@H](CCCCN)C(=O)N[C@H](C(=O)N[C@@H](CC(C)C)C(=O)N[C@@H](CCCCN)C(=O)N[C@@H](CCCCN)C(=O)N[C@@H](CC(C)C)C(=O)O)C(C)C [KWKLFKKIGKVLKKL]
- MIC [14]: 0.25 µM (≈ 0.464 µg/mL)
- MIC [15]: 16 µM (≈ 29.7 µg/mL)
- MIC [16]: 1.41 µM (≈ 2.63 µg/mL)
- MIC [17]: 5.66 µM (≈ 10.5 µg/mL)
- MIC [18]: 1 µM (≈ 1.86 µg/mL)

Compound: NCCCC[C@H](NC(=O)[C@H](CCCCN)NC(=O)[C@H](Cc1c[nH]c2ccccc12)NC(=O)[C@H](Cc1c[nH]c2ccccc12)NC(=O)[C@H](CCCN=C(N)N)NC(=O)[C@H](CCCCN)NC(=O)[C@@H](N)Cc1c[nH]c2ccccc12)C(=O)N[C@@H](Cc1c[nH]c2ccccc12)C(=O)N[C@@H](CCCN=C(N)N)C(=O)O [WKRWWKKWR]
- MIC [26]: 21.2 µM (≈ 31 µg/mL)
- MIC [27]: 43.2 µM (≈ 63 µg/mL)
- MIC [28]: 21.2 µM (≈ 31 µg/mL)
- MIC [3]: 2.74 µM (≈ 4 µg/mL)
- MIC [29]: 2.74 µM (≈ 4 µg/mL)
- MIC [30]: 11 µM (≈ 16 µg/mL)
- MIC [31]: 21.2 µM (≈ 31 µg/mL)
- MIC [32]: 21.2 µM (≈ 31 µg/mL)
- MIC [33]: 0.685 µM (≈ 1 µg/mL)
- MIC [34]: ≥ 87 µM
- MIC [35]: ≥ 87 µM
- MIC [36]: ≥ 87 µM
- MIC [37]: 1.37 µM (≈ 2 µg/mL)
- MIC [38]: 11 µM (≈ 16 µg/mL)
- MIC [39]: 11 µM (≈ 16 µg/mL)
- MIC [40]: 2.74 µM (≈ 4 µg/mL)
- MIC [41]: 2.74 µM (≈ 4 µg/mL)
- MIC [42]: 11 µM (≈ 16 µg/mL)
- MIC [43]: ≥ 43.2 µM
- MIC [44]: ≥ 43.2 µM

The next lines start with the values.

- MIC [1]: 150 µM (≈ 398 µg/mL)
- MIC [2]: 2.3 µM (≈ 6.1 µg/mL)
- MIC [3]: 9 µM (≈ 23.9 µg/mL)
- MIC [4]: 150 µM (≈ 398 µg/mL)
- MIC [5]: 9 µM (≈ 23.9 µg/mL)
- MIC [6]: 9 µM (≈ 23.9 µg/mL)
- MIC [7]: 9 µM (≈ 23.9 µg/mL)
- MIC [8]: 9 µM (≈ 23.9 µg/mL)
- MIC [9]: 9 µM (≈ 23.9 µg/mL)
- MIC [10]: ≥ 75 µM
Compound: CC[C@H](C)[C@@H]1NC(=O)[C@H](CCCCN)NC(=O)[C@@H](NC(=O)[C@H](Cc2ccccc2)NC(=O)[C@H](CC(C)C)NC(=O)[C@@H](NC(=O)[C@@H]2CCCN2C(=O)[C@@H](NC(=O)[C@@H](NC(=O)[C@H](CCCCN)NC(=O)[C@H](CO)NC(=O)[C@H](C)NC(=O)[C@@H](NC(=O)[C@H](CC(N)=O)NC(=O)[C@H](CC(C)C)NC(=O)[C@H](CC(C)C)NC(=O)[C@@H](NC(=O)[C@H](CO)NC(=O)[C@H](CC(C)C)NC(=O)[C@@H](N)Cc2ccccc2)[C@@H](C)O)C(C)C)C(C)C)C(C)C)[C@@H](C)O)CSSC[C@@H](C(=O)O)NC(=O)[C@H](CCCCN)NC(=O)[C@H](CCCCN)NC(=O)[C@H]([C@@H](C)O)NC1=O [FLSTLLNVASKVVPTLFCKITKKC]

- MIC [19]: 8.1 µM (≈ 15.2 µg/mL)
- MIC [20]: 9.6 µM (≈ 18 µg/mL)
- MIC [21]: 6 µM (≈ 11.3 µg/mL)
- MIC [22]: 10.6 µM (≈ 19.9 µg/mL)
Compound: CC(C)C[C@H](NC(=O)CNC(=O)[C@H](C)NC(=O)[C@@H](N)CCCN=C(N)N)C(=O)N[C@@H](CCCCN)C(=O)N[C@@H](Cc1ccccc1)C(=O)N1CCC[C@H]1C(=O)N[C@H](C(=O)NCC(=O)N[C@@H](CCCN=C(N)N)C(=O)N[C@H](C(=O)N[C@@H](Cc1cnc[nH]1)C(=O)N[C@@H](CCCN=C(N)N)C(=O)N[C@@H](CC(C)C)C(=O)N[C@@H](CC(C)C)C(=O)N[C@@H](CCCN=C(N)N)C(=O)O)C(C)C)C(C)C [RAGLKFPVGRVHRLLR]

- MIC [23]: 1.7 µM and 2.9 µM
- MIC [24]: 4 µM and 7.5 µM
- MIC [25]: 2.1 µM and 1.9 µM
Compound: CC[C@H](C)[C@@H]1NC(=O)[C@H](CCCN=C(N)N)NC(=O)[C@@H]2CSSC[C@@H]3NC(=O)[C@H](C(C)C)NC(=O)CNC(=O)[C@H](Cc4ccccc4)NC(=O)[C@H](Cc4ccc(O)cc4)NC(=O)[C@H](C(C)C)NC(=O)[C@H](CCC(=O)O)NC(=O)[C@H](CC(C)C)NC(=O)CNC(=O)[C@H](CC(C)C)NC(=O)[C@H](CSSC[C@H](NC(=O)[C@H](CCCN=C(N)N)NC(=O)[C@H](CCCN=C(N)N)NC(=O)[C@H](C)NC(=O)[C@H](CC(C)C)NC(=O)[C@H](CCCN=C(N)N)NC(=O)CNC(=O)[C@H](Cc4cnc[nH]4)NC(=O)[C@H](CC(C)C)NC(=O)[C@H](Cc4ccccc4)NC3=O)C(=O)N[C@H](C(=O)N[C@@H](CCCN=C(N)N)C(=O)O)CSSC[C@H](NC(=O)[C@@H](NC(=O)[C@@H](N)CCCN=C(N)N)[C@@H](C)CC)C(=O)N[C@@H](CCCN=C(N)N)C(=O)N2)NC(=O)[C@H](CCCN=C(N)N)NC(=O)CNC1=O [RICRCRIGRCLGLEVYFGVCFLHGRLARRCCR]
